Several values for one entry are separate records, joined by “and”; a condition that tells them apart may be missing. Equal entries are not always repeated.
Target: T1, KDM4A F185A (asKDM4A) in HEK293T cells (Homo sapiens, UniProt O75164, F185A)
T1 construct: we generated the F185A mutation in full-length KDM4A carrying all of the functional domains; host or cells: HEK293T
T1 sequence (O75164 1-1064 F185A): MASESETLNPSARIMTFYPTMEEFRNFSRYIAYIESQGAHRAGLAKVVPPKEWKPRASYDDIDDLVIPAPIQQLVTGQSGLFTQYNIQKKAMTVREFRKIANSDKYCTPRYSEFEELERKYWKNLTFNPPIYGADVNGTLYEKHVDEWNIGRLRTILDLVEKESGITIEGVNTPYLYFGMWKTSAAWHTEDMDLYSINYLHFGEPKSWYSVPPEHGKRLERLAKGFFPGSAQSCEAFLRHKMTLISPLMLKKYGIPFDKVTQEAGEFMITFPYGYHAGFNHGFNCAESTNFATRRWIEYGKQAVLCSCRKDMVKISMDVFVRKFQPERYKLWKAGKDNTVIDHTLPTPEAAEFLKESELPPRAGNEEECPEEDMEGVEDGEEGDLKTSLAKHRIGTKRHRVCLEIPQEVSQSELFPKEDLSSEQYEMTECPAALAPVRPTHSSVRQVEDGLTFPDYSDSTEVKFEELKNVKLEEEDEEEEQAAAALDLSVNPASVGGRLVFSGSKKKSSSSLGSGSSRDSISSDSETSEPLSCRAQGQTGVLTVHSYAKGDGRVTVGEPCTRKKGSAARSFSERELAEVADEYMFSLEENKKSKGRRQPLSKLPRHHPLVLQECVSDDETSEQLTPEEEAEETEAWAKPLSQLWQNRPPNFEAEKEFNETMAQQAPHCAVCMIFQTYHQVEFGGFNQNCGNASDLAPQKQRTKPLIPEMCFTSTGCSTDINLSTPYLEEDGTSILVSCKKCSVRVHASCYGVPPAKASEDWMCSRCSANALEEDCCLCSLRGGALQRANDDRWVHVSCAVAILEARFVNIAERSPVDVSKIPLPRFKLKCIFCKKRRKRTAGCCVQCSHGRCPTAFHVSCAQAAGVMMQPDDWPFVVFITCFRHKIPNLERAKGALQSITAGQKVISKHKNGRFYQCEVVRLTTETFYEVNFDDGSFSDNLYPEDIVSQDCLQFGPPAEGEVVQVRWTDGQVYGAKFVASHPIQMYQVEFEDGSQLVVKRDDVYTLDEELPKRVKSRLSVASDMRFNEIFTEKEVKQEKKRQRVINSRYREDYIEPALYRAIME
Experiment: Histone extraction, digestion and tandem mass spectrometry (relative abundance of histone modifications)
Format: cell-based
Procedure: HEK293T cells were transiently transfected with asKDM4A and treated with varying concentrations of 6A or 6B. […] To further confirm the activity of the enzyme–inhibitor pair, we performed tandem mass spectrometry of tryptic histones isolated from HEK293T cells expressing asKDM4A in the presence or absence of 100 μM 6A. […]
22. Histone extraction, digestion and tandem mass spectrometry
HEK 293-T cells (ATCC CRL-1573) were plated into 6-well plates (Corning) in DMEM (Corning) supplemented with 10% FBS (Corning) and 1X Antibiotic/Antimycin
(Penicillin/Streptomycin/Fungiozone) (Cytiva HyClone) in an incubator held at 37 °C with 5%
CO2. At 75% confluency, cells were transfected with 2.5 µg KDM4A F185A or Empty Vector with 5µg Thermo Turbofect (FERR0531). After 4 hours, the media was washed and 200 µM of 6A or equivalent volume of DMSO was added and left to incubate at 37 °C for 24 hours. Cells were then washed with 1X PBS (Corning) followed by trypsinization (Gibco TrypLE™ Express Enzyme). Collected cells were centrifuged at 3000xg for 3 minutes, followed by washing with 1X PBS and centrifuged for an additional 3000xg for 3 minutes. Histone proteins were extracted from the pellet as described by25 to ensure good-quality identification and quantification of single histone marks. Briefly, cell pellets were dissolved in 100 µL of cold 0.2 M H2SO4 and incubated for 2 hours rotating in a cold room (4 °C). Aliquots were then centrifuged at 3400xg for 5 minutes […]
at 4 °C and the supernatant was added to a fresh tube. 100% cold TCA was then added to a final volume of 33% volume/volume TCA/supernatant and left to incubate for 1 hour in a cold room (4 °C). Samples were then centrifuged at 3400xg for 5 min at 4 °C and the supernatant was discarded. The precipitate was then washed with cold acetone/0.1% HCl and centrifuged at 3400xg for 5 minutes at 4 °C. The supernatant was discarded, and the precipitate was washed with cold acetone and centrifuged at 3400xg for 5 minutes at 4 °C. The supernatant was discarded, and the pellet was dried using a vacuum centrifuge.
The pellet was dissolved in 50 mM ammonium bicarbonate, pH 8.0, and histones were subjected to derivatization using 5 µL of propionic anhydride and 14 µL of ammonium hydroxide (all Sigma Aldrich) to balance the pH at 8.0. The mixture was incubated for 15 min and the procedure was repeated. Histones were then digested with 1 µg of sequencing grade trypsin (Promega) diluted in 50mM ammonium bicarbonate (1:20, enzyme:sample) overnight at room temperature.
Derivatization reaction was repeated to derivatize peptide N-termini. The samples were dried in a […]
Sample desalting: Prior to mass spectrometry analysis, samples were desalted using a 96-well plate filter (Orochem) packed with 1 mg of Oasis HLB C-18 resin (Waters). Briefly, the samples were resuspended in 100 µl of 0.1% TFA and loaded onto the HLB resin, which was previously equilibrated using 100 µl of the same buffer. After washing with 100 µl of 0.1% TFA, the samples were eluted with a buffer containing 70 µl of 60% acetonitrile and 0.1% TFA and then dried in a […]
LC-MS/MS Acquisition and Analysis: Samples were resuspended in 10 µl of 0.1% TFA and loaded onto a Dionex RSLC […] (Thermo Scientific), coupled online with an Orbitrap Fusion Lumos (Thermo Scientific). Chromatographic separation was performed with a two-column system, consisting of a C-18 trap cartridge (300 µm ID, 5 mm length) and a picofrit analytical column (75 µm ID, 25 cm length) packed in-house with reversed-phase Repro-Sil Pur C18-AQ 3 µm resin. Peptides were separated using a 30 min gradient from 1-30% buffer B (buffer A: 0.1% formic acid, buffer B: 80% acetonitrile + 0.1% formic acid) at a flow rate of 300 nl/min.
The mass spectrometer was set to acquire spectra in a data-independent acquisition (DIA) mode.

[1] = 6A-treated samples, replicates _1 and _2
[2] = H1 variant peptide, samples 6A_1, 6A_2
[3] = HEK293T cells expressing asKDM4A, 100 μM 6A, LC-MS/MS, n = 2
[4] = HEK293T cells, KDM4A F185A + 6A, replicates 6A_1 and 6A_2

CCCCCCCCOC(=O)C(=O)NC(CC(C)C)C(=O)O [6A, L-Leu octyl-ester NOG]
Single marks H3K4ac [1]: 1e-6 and 0.002004 | Single marks H3K4me1 [1]: 0.1039 and 0.09374 | Single marks H3K4me2 [1]: 0.002434 and 0.008819 | Single marks H3K4me3 [1]: 9e-6 and 0.003387 | Single marks H3K9ac [1]: 0.003245 and 0.006938 | Single marks H3K9me1 [1]: 0.2368 and 0.08817 | Single marks H3K9me2 [1]: 0.4213 and 0.4856 | Single marks H3K9me3 [1]: 0.1855 | Single marks H3K14ac [1]: 0.4176 and 0.5798 | Single marks H3K18ac [1]: 0.008957 and 0.006562 | Single marks H3K18me1 [1]: 0 and 1.2e-5 | Single marks H3K23ac [1]: 0.5125 and 0.4435 | Single marks H3K23me1 [1]: 0 and 5e-6 | Single marks H3K56ac [1]: 0 | Single marks H3K56me1 [1]: 0 and 0.9736 | Single marks H3K56me2 [1]: 0 | Single marks H3K56me3 [1]: 0 | Single marks H3K79ac [1]: 0 | Single marks H3K79me1 [1]: 0.3484 and 0.03322 | Single marks H3K79me2 [1]: 0.33 and 0.01715 | Single marks H3K79me3 [1]: 0.04582 and 0 | Single marks H3K122ac [1]: 0.5896 and 0 | Single marks H3S10ph [1]: 0.08584 and 0.005059 | Single marks H4K5ac [1]: 0.04104 and 0.1648 | Single marks H4K8ac [1]: 0.05131 and 0.1596 | Single marks H4K12ac [1]: 0.09119 and 0.2668 | Single marks H4K16ac [1]: 0.3167 and 0.492 | Single marks H4K20ac [1]: 0.00298 and 0.01255 | Single marks H4K20me1 [1]: 0.4844 and 0.3612 | Single marks H4K20me2 [1]: 0.1012 and 0.2416 | Single marks H4K20me3 [1]: 0.03481 and 0.03641 | Single marks H31K27ac [1]: 0.000296 and 0 | Single marks H31K27me1 [1]: 0.18 and 0.1869 | Single marks H31K27me2 [1]: 0.4707 and 0.5161 | Single marks H31K27me3 [1]: 0.189 and 0.1409 | Single marks H31K36me1 [1]: 0.204 and 0.1649 | Single marks H31K36me2 [1]: 0.3714 and 0.4932 | Single marks H31K36me3 [1]: 0.07097 and 0.06279 | Single marks H33K27ac [1]: 6.9e-5 and 0 | Single marks H33K27me1 [1]: 0.2147 and 0.2058 | Single marks H33K27me2 [1]: 0.4693 and 0.4746 | Single marks H33K27me3 [1]: 0.1187 and 0.09838 | Single marks H33K36me1 [1]: 0.2345 and 0.1564 | Single marks H33K36me2 [1]: 0.4525 and 0.5384 | Single marks H33K36me3 [1]: 0.03679 and 0.06963 | Relative abundance, H1_1_35 H11.SETAPVAQAASTATEKPAAAKKTKKPAKAAAPR [2]: 0.0% | Relative abundance, H1_1_35 H13.SETAPAAPAAPAPVEKTPVKKKAKKTGAAAGKR [2]: 0.0% | Relative abundance, H1_1_35 H15.SETAPAETAAPAPVEKSPAKKKTTKKAGAAKR [2]: 0.0% | Relative abundance, H1_54_81 H1v234.SGVSLAALKKALAAAGYDVEKNNSR [2]: 100.0% and 65.9% | Relative abundance, H1_54_81 H11.SGVSLAALKKSLAAAGYDVEKNNSR [2]: 0.0% | Relative abundance, H1_54_81 H15.GGVSLPALKKALAAGGYDVEKNNSR [2]: 0.0% | relative abundance of other key histone methylation and acetylation sites (HEK293T cells expressing asKDM4A, 100 μM 6A, LC-MS/MS): remained unaffected | relative abundance of H3K9me3 [3]: recovered to the level of the control vector | relative abundance of H3K36me3 [3]: recovered to the level of the control vector | Relative abundance AKAKSR(H2A3_12_17) (peptide total) [4]: 100.0% | Relative abundance AKAKTR(H2A1_12_17) (peptide total) [4]: 100.0% | Relative abundance DNKKTR(H2A1_72_77) (peptide total) [4]: 100.0% | Relative abundance H2A1_12_17 K13ac [4]: 0.0152% and 0.527% | Relative abundance H2A1_12_17 K13acK15ac [4]: 0.0603% and 0.3% | Relative abundance H2A1_12_17 K13me1 [4]: 1.8% and 5.0% | Relative abundance H2A1_12_17 K15ac [4]: 15.2% and 32.5% | Relative abundance H2A1_12_17 K15me1 [4]: 4.8% and 11.0% | Relative abundance H2A1_12_17 unmod [4]: 78.1% and 50.7% | Relative abundance H2A1_72_77 K74ac [4]: 0.0186% and 0.272% | Relative abundance H2A1_72_77 unmod [4]: 100.0% and 99.7% | Relative abundance H2A3_12_17 K13ac [4]: 0.023% and 0.0778% | Relative abundance H2A3_12_17 K13acK15ac [4]: 0.0187% and 0.4% | Relative abundance H2A3_12_17 K13me1 [4]: 11.1% and 15.7% | Relative abundance H2A3_12_17 K15ac [4]: 0.0415% and 0.131% | Relative abundance H2A3_12_17 K15me1 [4]: 72.5% and 57.2% | Relative abundance H2A3_12_17 unmod [4]: 16.3% and 26.5% | Relative abundance H2AZ_1_19 K4acK7acK11ac [4]: 0.0% | Relative abundance H2AZ_1_19 K4acK7acK11acK15ac [4]: 1.0% and 0.641% | Relative abundance H2A_1_88 H2A14s.HLQLAIR [4]: 85.1% and 95.1% | Relative abundance H2A_1_88 H2AX.GKTGGKAR [4]: 1.9% and 1.0% | Relative abundance H2A_1_88 H2AZ.AGGKAGKDSGKAKTKAVSR [4]: 13.0% and 3.9%

Source: PMC11783601, “Analogue-Sensitive Inhibition of Histone Demethylases Uncovers Member-Specific Function in Ribosomal Protein Synthesis” (Journal of the American Chemical Society, 2025)
